Like-named read-outs stand apart in the source and are kept apart here. Bounds are passed on as bounds.

Experimental findings from US9145354B2, “Pharmaceutical compounds” (priority 2011, dated 2015) are described below.

In the experiment the target is full length NS3/4a (Hepatitis C virus genotype 1b (isolate BK) (HCV), UniProt P26663). Briefly: NS3 Protease Assay (Example A), FRET-based. Format: biochemical. In short, it runs like this:
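Initial rates were taken from fluorescence progress curves over 30 min at room temperature, and IC50 was fitted across replicates. In-house full-length NS3/4a cleaved a FRET peptide (5-FAMsp/QXL520) from the NS4A/B site. Medium: 50 mM Tris pH8, 20 mM DTT, 1% CHAPS, 10% glycerol, 5% DMSO.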

[1] abbreviates: stated as IC50 less than 30 μM or at least 40% inhibition at a concentration of 100 μM, read-out: IC50 against the protease activity of the full length NS3/4a.
The mark [2] stands for this setting: HCV NS3 protease assay, full length NS3/4a, read-out: Assay A IC50 (μM) average.
The mark [3] stands for this setting: read-out: IC50 against the protease activity of the full length NS3/4a.

Chain of full length NS3/4a (P26663 1027-1657): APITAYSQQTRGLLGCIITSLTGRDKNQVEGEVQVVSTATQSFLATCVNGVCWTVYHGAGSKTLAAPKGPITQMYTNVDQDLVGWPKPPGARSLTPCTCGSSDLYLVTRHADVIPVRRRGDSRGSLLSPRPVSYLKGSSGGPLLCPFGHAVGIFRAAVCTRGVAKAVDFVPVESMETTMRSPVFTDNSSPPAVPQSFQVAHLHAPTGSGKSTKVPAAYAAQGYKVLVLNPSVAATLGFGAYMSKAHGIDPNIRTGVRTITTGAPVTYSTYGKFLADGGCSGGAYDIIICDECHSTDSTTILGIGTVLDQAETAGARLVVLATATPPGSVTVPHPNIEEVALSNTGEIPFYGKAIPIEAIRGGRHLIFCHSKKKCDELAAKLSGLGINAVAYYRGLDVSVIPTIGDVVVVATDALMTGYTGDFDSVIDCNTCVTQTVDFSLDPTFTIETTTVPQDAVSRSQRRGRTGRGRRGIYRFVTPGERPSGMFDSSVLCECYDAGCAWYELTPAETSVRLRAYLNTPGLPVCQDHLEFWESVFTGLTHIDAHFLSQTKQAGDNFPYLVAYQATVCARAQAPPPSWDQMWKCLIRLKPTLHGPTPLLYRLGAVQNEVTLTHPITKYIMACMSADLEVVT

The compound `CC[C@@H](N[C@H](C)CC(N)=O)c1ccc(Cl)c(C(=O)c2ccccn2)c1F` [Example 105, (3R)-3-{[(1R)-1-{4-chloro-2-fluoro-3-[(pyridin-2-yl)carbonyl]phenyl}propyl]amino}butanamide] came in with an inhibition at 30 µM of 57%. Under setting [1], the IC50 was below 30 µM.

As to `CC[C@@H](N[C@H](C)CC(N)=O)c1ccc(Cl)c(C(=O)c2ccncc2)c1F` [Example 107, (3R)-3-{[(1R)-1-{4-chloro-2-fluoro-3-[(pyridin-4-yl)carbonyl]phenyl}propyl]-amino}butanamide], the IC50 runs as follows: under setting [2], 1.1 µM; under setting [3], 1 to 5 µM.

With `CC[C@@H](N[C@H](C)CC(N)=O)c1ccc(Cl)c(C(=O)c2ccns2)c1F` [Example 109, (3R)-3-{[(1R)-1-{4-chloro-2-fluoro-3-[(1,2-thiazol-5-yl)carbonyl]phenyl}propyl]-amino}butanamide], the IC50 under setting [2] came to 0.47 µM.

Turning to `CC[C@@H](N[C@H](C)CC(N)=O)c1ccc(Cl)c(C(=O)c2cc(C)on2)c1F` [Example 111, (3R)-3-{[(1R)-1-{4-chloro-2-fluoro-3-[(5-methyl-1,2-oxazol-3-yl)carbonyl]-phenyl}-propyl]amino}-butanamide], the IC50 is 3.1 µM under setting [2] and 1 to 5 µM under setting [3].

With `C[C@H](CC(N)=O)N[C@@H](c1ccc(Cl)c(C(=O)c2ccccc2)c1F)C1CC1` [Example 112, (3R)-3-{[(R)-(3-benzoyl-4-chloro-2-fluorophenyl)(cyclopropyl)-methyl]amino}butanamide], under setting [2], the IC50 is 0.62 µM.

Consider `CC[C@@H](N[C@H](C)CC(N)=O)c1ccc(Cl)c(C(=O)c2ccccc2)c1F` [Example 114, (3R)-3-{[(1R)-1-(3-benzoyl-4-chloro-2-fluorophenyl)-(2,2,3,3,3-D)propyl]amino}-butanamide], for which the IC50 under setting [2] was 0.75 µM.

With `CC[C@@H](N[C@H](C)CC(N)=O)c1ccc(Cl)c(C(=O)c2ccc[n+]([O-])c2)c1F` [Example 117, (R)-3-{(R)-1-[4-Chloro-2-fluoro-3-(1-oxy-pyridine-3-carbonyl)-phenyl]propylamino}-butyramide], the “Assay A % inhibition average” value (@ 10 uM) came out at 16% @ 10 uM.

Consider `C[C@H](CC(N)=O)N[C@@H](c1ccc(Cl)c(C(=O)c2cccnc2)c1F)C1CC1` [Example 118, (3R)-3-{[(R)-{4-chloro-2-fluoro-3-[(pyridin-3-yl)carbonyl]phenyl}(cyclopropyl)methyl]amino}-butanamide], for which, where the note is “@ 3 uM”, testing at 3 µM gave an inhibition of 41%. In addition, the IC50 under setting [1] was below 30 µM.

As for `C[C@H](CC(N)=O)N[C@@H](c1ccc(Cl)c(C(=O)c2ccc(F)cc2)c1F)C1CC1` [Example 120, (3R)-3-{[(R)-{4-chloro-2-fluoro-3-[(4-fluorophenyl)carbonyl]phenyl}(cyclopropyl)methyl]amino}butanamide], the IC50 runs as follows: under setting [2], 1.2 µM; under setting [3], 1 to 5 µM.

Regarding `CC[C@@H](N[C@@H](C)CC(N)=O)c1ccc(Cl)c(C(=O)c2cccc(C(=O)O)c2)c1F` [Example 122, 3-({3-[(1R)-1-{[(2S)-1-carbamoylpropan-2-yl]amino}propyl]-6-chloro-2-fluorophenyl}carbonyl)-benzoic acid], the IC50 reads like this: under setting [2], 1.4 µM; under setting [3], 1 to 5 µM.

As for `CC[C@@H](N[C@H](C)CC(N)=O)c1ccc(Cl)c(C(=O)c2cccc(C(=O)O)c2)c1F` [Example 123, 3-({3-[(1R)-1-{[(2R)-1-carbamoylpropan-2-yl]amino}propyl]-6-chloro-2-fluorophenyl}carbonyl)-benzoic acid], the IC50 is 3.2 µM under setting [2] and 1 to 5 µM under setting [3].

`[2H]C([2H])([2H])C([2H])([2H])[C@@H](N[C@H](C)CC(N)=O)c1ccc(Cl)c(C(=O)c2ccc3c(c2)OCC(=O)N3)c1F` [Example 124, (3R)-3-{[(1R)-1-{4-chloro-2-fluoro-3-[(3-oxo-3,4-dihydro-2H-1,4-benzoxazin-7-yl)carbonyl]phenyl} (2,2,3,3,3-deutero)propyl]amino}-butanamide]: the IC50 under setting [2] worked out at 1 µM and the IC50 under setting [3] is 1 to 5 µM.

Take `C[C@H](CC(N)=O)N[C@@H](c1ccc(Cl)c(C(=O)c2ccc(C#N)cc2)c1F)C1CC1` [Example 128, (3R)-3-{[(R)-{4-chloro-3-[(4-cyanophenyl)-carbonyl]-2-fluorophenyl}(cyclo-propyl)methyl]amino}-butanamide]: the IC50 is 0.28 µM under setting [2] and below 1 µM under setting [3].

`C[C@@H](CC(N)=O)N[C@@H](c1ccc(Cl)c(C(=O)c2ccc(C#N)cc2)c1F)C1CC1` [Example 129, (3S)-3-{[(R)-{4-chloro-3-[(4-cyanophenyl)-carbonyl]-2-fluorophenyl}(cyclo-propyl)methyl]amino}-butanamide] showed an inhibition at 0.03 µM (@ 0.03 uM) of 36%.

Turning to `C[C@H](CC(N)=O)N[C@@H](c1ccc(Cl)c(C(=O)c2ccncc2)c1F)C1CC1` [Example 130, (3R)-3-{[(R)-{4-chloro-2-fluoro-3-[(pyridin-4-yl)carbonyl]phenyl}-(cyclopropyl)methyl]-amino}butanamide], the IC50 is, setting by setting: under setting [2], 1.5 µM; under setting [3], 1 to 5 µM.

As to `CC[C@@H](N[C@H](C)C1(C(N)=O)CC1)c1ccc(Cl)c(C(=O)c2cccnc2)c1F` [Example 131, 1-[(1R)-1-{[(1R)-1-{4-chloro-2-fluoro-3-[(pyridin-3-yl)carbonyl]phenyl}-propyl]-amino}ethyl]-cyclopropane-1-carboxamide], the IC50 was 7.9 µM under setting [2] and below 30 µM under setting [1].

Turning to `CC[C@@H](N[C@H](C)CC(N)=O)c1ccc(Cl)c(C(=O)c2cnc(N)cn2)c1F` [Example 135, (3R)-3-{[(1R)-1-{3-[(5-aminopyrazin-2-yl)carbonyl]-4-chloro-2-fluorophenyl}propyl]-amino}butanamide], the IC50 by setting is: under setting [2], 3.4 µM; under setting [3], 1 to 5 µM.

On to `CC[C@@H](N[C@@H](C)CC(N)=O)c1ccc(Cl)c(C(=O)c2ccc(N(C)C)nc2)c1F` [Example 136, (3S)-3-{[(1R)-1-(4-chloro-3-{[6-(dimethylamino)pyridin-3-yl]carbonyl}-2-fluorophenyl)propyl]-amino}butanamide], for which the IC50 is 0.83 µM under setting [2] and below 1 µM under setting [3].

`CC[C@@H](N[C@H](C)CC(N)=O)c1ccc(Cl)c(C(=O)c2ccc(N(C)C)nc2)c1F` [Example 137, (3R)-3-{[(1R)-1-(4-chloro-3-{[6-(dimethylamino)pyridin-3-yl]carbonyl}-2-fluorophenyl)propyl]amino}butanamide] yielded an inhibition at 30 µM of 60%. For the same compound, the IC50 under setting [1] is below 30 µM.

Take `CC[C@@H](N[C@@H](C)CC(N)=O)c1ccc(Cl)c(C(=O)c2cnc(N)cn2)c1F` [Example 138, (3S)-3-{[(1R)-1-{3-[(5-aminopyrazin-2-yl)carbonyl]-4-chloro-2-fluorophenyl}propyl]-amino}butanamide]: the IC50 is, setting by setting: under setting [2], 0.31 µM; under setting [3], below 1 µM.

Turning to `CC[C@@H](N[C@H](C)CC(N)=O)c1ccc(Cl)c(C(=O)c2ccc(-n3cccn3)nc2)c1F` [Example 140, (3R)-3-{[(1R)-1-(4-chloro-2-fluoro-3-{[6-(1H-pyrazol-1-yl)pyridin-3-yl]carbonyl}-phenyl)-propyl]amino}-butanamide], the IC50 reads like this: under setting [2], 3.9 µM; under setting [3], 1 to 5 µM.

For the compound `CC[C@@H](N[C@H](C)CC(N)=O)c1ccc(Cl)c(C(=O)c2ccc(C#N)nc2)c1F` [Example 141, (3R)-3-{[(1R)-1-{4-chloro-3-[(6-cyanopyridin-3-yl)carbonyl]-2-fluorophenyl}propyl]-amino}butanamide], the IC50 under setting [2] was determined as 0.47 µM and the IC50 under setting [3] was below 1 µM.

As for `CC[C@@H](N[C@H](C)CC(N)=O)c1ccc(Cl)c(C(=O)c2cc[n+]([O-])cc2)c1F` [Example 143, (R)-3-{(R)-1-[4-Chloro-2-fluoro-3-(1-oxy-pyridine-4-carbonyl)-phenyl]propylamino}-butyramide], the “Assay A % inhibition average” value is reported as 59% @ 30 uM. Besides, the IC50 under setting [1] is below 30 µM.

Compound `CC[C@@H](N[C@@H](C)CC(N)=O)c1ccc(Cl)c(C(=O)c2ccc(C(N)=O)cc2)c1F` [Example 146, 4-({3-[(1R)-1-{[(2S)-1-Carbamoylpropan-2-yl]amino}propyl]-6-chloro-2-fluorophenyl}carbonyl)-benzamide] had an inhibition at 0.3 µM (@ 0.3 uM) of 56%.

For the setting “@ 10 uM”, `CC[C@@H](N[C@H](C)CC(N)=O)c1ccc(Cl)c(C(=O)c2ccc(=O)[nH]c2)c1F` [Example 148, (3R)-3-{[(1R)-1-{4-chloro-2-fluoro-3-[(6-oxo-1,6-dihydropyridin-3-yl)carbonyl]-phenyl}propyl]amino}-butanamide] showed an inhibition at 10 µM of 43%. For the same compound, the IC50 under setting [1] is below 30 µM.

Turning to `CC[C@@H](N[C@H](C)CC(N)=O)c1ccc(C)c(C(=O)c2ccccc2)c1F` [Example 151, (3R)-3-{[(1R)-1-(3-benzoyl-2-fluoro-4-methylphenyl)propyl]amino}butanamide], the IC50 under setting [2] came out at 0.49 µM.

`CC[C@@H](N[C@H](C)CC(N)=O)c1ccc(OC)c(C(=O)c2ccccc2)c1F` [Example 153, (3R)-3-{[(1R)-1-(3-benzoyl-2-fluoro-4-methoxyphenyl)propyl]amino}butanamide]: the IC50 under setting [2] was found to be 0.49 µM.

For the compound `C[C@H](CC(N)=O)N[C@@H](c1ccc(Cl)c(C(=O)c2ccc(N)nc2)c1F)C1CC1` [Example 155, (3R)-3-{[(R)-{3-[(6-aminopyridin-3-yl)carbonyl]-4-chloro-2-fluorophenyl}(cyclo-propyl)methyl]amino}-butanamide], the IC50 reads like this: under setting [2], 1 µM; under setting [3], 1 to 5 µM.

Turning to `CC[C@@H](N[C@H](C)CC(N)=O)c1ccc(Cl)c(C(=O)c2ccc(N)cn2)c1F` [Example 156, (3R)-3-{[(1R)-1-{3-[(5-aminopyridin-2-yl)carbonyl]-4-chloro-2-fluorophenyl}propyl]-amino}butanamide], the IC50 by setting is: under setting [2], 2 µM; under setting [3], 1 to 5 µM.

As a reminder, the inhibition is the percentage by which the read-out fell short of the control. Low values mean little suppression, high ones strong suppression.
